# In US20120115848A1, “Inhibitors of Polo-Like Kinase” (ELAN PHARMACEUTICALS, INC., priority 2010, published 2012):
# Assays:
# PLK2 = molecular target: T1, PLK2 (Homo sapiens, UniProt Q9NYY3); test: PLK TR-FRET peptide assay (PLK2); format: biochemical; conditions: for selectivity relative to PLK1: compared to analogous compounds of WO 2011/079118; for activity with respect to PLK2: in vitro IC50 compared to analogous compounds of WO 2011/079118 (R1 methyl instead of fused ring)
# T1 construct: GST (N)
# T1 sequence (Q9NYY3 whole entry, the tested form may be a part): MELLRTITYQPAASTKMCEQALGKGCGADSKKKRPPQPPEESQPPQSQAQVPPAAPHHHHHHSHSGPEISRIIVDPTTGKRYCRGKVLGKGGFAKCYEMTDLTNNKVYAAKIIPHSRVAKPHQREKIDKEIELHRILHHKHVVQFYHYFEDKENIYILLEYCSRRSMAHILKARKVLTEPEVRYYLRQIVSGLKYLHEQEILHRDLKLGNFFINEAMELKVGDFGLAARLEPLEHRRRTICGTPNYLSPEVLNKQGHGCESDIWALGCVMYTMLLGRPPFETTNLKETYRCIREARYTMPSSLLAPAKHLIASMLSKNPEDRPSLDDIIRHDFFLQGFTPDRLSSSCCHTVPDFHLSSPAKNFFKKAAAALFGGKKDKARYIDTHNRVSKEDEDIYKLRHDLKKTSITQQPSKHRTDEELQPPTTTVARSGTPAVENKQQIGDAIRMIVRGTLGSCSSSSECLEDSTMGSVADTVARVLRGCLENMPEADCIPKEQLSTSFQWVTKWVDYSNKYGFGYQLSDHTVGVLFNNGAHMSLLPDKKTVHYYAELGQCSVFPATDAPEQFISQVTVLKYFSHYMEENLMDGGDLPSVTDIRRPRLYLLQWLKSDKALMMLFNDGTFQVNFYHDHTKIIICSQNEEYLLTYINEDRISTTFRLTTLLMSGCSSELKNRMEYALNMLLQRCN
# Description: (§1) Compounds as described herein (compounds of Formula I, e.g., compounds of the above Examples) are tested for their in vitro kinase activities using various PLK assays. An exemplary assay procedure is described below.
# (§2) (1) Test compound solution preparation: prepare 4× compound solution in PLK assay buffer (50 mM HEPES, 10 mM MgCl2, 1 mM EGTA, 0.01% Tween-20, pH7.4). DTT is added to the buffer just before the experiment to a final concentration of 2 mM. Add 2.5 μl/well to a black 384-well low volume plate (4% DMSO at this step). (2) Kinase preparation: Prepare 2×GST-PLK 1, 2 or 3 (e.g., CarnaBio) solutions in assay buffer (6 nM for PLK1, 6 nM for PLK2 and 0.2 nM for PLK3). Add 5 μl/well, shake the plate, incubate the enzyme with compound at ret. Time for 15 min. (3) ATP/substrate mixture preparation: Prepare 4× (ATP/ULight-Topo Ha peptide substrate; e.g., Perkin Elmer) mixture in assay buffer (0.4 mM ATP/200 nM peptide). Add 2.5 μl/well, shake the plate and incubate at ret. Time. Reactions time: 60 min for PLK1, 60 min for PLK2 and 15 min for PLK3 (4) EDTA preparation: Dilute 0.5M EDTA to 24 mM with detection buffer. Add 5 μl/well to the plate, shake the plate well for 5 min. (5) Prepare 4× Eu-anti-P-Topo Ha (T1342) (e.g., Perkin Elmer) solution (8 nM) in detection buffer (50 Tris-HCl, 150 mM NaCl, 0.5% BSA, PH7.5). Add 5 μl/well to the plate, shake the plate and incubate at ret. Time for 1 h before reading on Envision at 665 nm/615 nm. The fluorescent signal as a function of compound concentration is used to determine the compound IC50.
# PLK3 = molecular target: T2, PLK3 (Homo sapiens, UniProt Q9H4B4); test: PLK TR-FRET peptide assay (PLK3); format: biochemical; conditions: class symbols
# T2 construct: GST (N)
# T2 sequence (Q9H4B4 whole entry): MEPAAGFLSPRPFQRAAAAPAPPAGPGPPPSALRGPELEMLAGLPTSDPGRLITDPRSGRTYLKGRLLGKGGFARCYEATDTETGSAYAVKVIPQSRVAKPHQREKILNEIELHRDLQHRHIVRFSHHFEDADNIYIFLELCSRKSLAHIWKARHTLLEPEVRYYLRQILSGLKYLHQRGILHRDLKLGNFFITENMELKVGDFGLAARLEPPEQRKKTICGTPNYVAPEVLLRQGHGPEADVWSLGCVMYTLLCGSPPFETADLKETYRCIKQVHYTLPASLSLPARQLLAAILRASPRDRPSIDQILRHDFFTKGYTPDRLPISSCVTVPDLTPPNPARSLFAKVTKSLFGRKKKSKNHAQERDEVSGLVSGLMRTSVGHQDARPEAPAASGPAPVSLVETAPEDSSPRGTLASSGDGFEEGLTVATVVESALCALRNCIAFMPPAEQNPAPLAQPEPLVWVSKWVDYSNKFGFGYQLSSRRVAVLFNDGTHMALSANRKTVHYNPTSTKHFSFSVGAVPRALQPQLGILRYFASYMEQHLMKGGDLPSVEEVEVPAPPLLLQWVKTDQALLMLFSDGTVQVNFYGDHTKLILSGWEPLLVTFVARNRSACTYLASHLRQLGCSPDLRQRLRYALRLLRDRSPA
# Description: as §1, §2
# [1] = test system: HEK-293 cells expressing α-synuclein and PLK2; test: 293-Syn/PLK2 cell assay (ratio of p-Ser-129 α-synuclein to total synuclein, ELISA); format: cell-based; conditions: for IC50: Homo sapiens, HEK293, HEK-293 cells expressing α-synuclein and PLK2, ratio of phosphorylated synuclein to total synuclein; for cell activity: cellular IC50 compared to analogous compounds of WO 2011/079118
# Description: Compounds as described herein (compounds of Formula I, e.g., compounds of the above Examples) are tested for their activity in HEK-293 cells expressing α-synuclein and PLK2. An exemplary assay procedure is described below.
# (1) Plate HEK-293 cells stably transfected with α-synuclein in 10 cm dishes (Corning) at […] in 10% FCS/DMEM. (2) Transfect cells with PLK2 (PLK2-pCMV6 (Origene), at a concentration of 24 μg/dish and 72 μl Fugene6/dish (Roche)). (3) Trypsinize cells the following day and plate at 30,000 cells/well in PDL coated 96 well tissue culture plates (Becton Dickinson). (4) Starting with compounds at a concentration of 10 mM solutions, prepare five 1:3 serial dilutions in DMSO. (5) Dilute test and positive control compound DMSO stocks 1:100 into 10% FCS DMEM. (6) Change the cell media immediately prior to compound treatment, then add compound+DMEM to cells at 1:10 final dilution (final DMSO concentration is 0.1%). (7) After 2 hours, place the cells on ice, remove the media and the rinse cells once with cold phosphate buffered saline (PBS). Remove PBS and lyse the cells using a cell extraction buffer (CEB) (10 mM Tris, pH 7.4, 100 mM NaCl, 1 mM EDTA, 1 mM NaF, 1 mM EGTA, 20 mM Na4P2O7, 2 mM Na3VO4, 0.5% Deoxycholate, 1% TritonX-100, 10% Glycerol, 0.1% SDS) with added protease inhibitors (10 μg/ml leupeptin, 20 μg/ml aprotinin) (8) Freeze plates on dry ice and store at −80°.
# Total and p-Ser-129 α-synuclein levels can be quantified with a sandwich ELISA (e.g., using 1H7 as the capture antibody and biotinylated 5C12 and 11A5 as the total and phospho synuclein reporter antibodies respectively; see e.g., J. Biol. Chem. 2006, 281:29739-29752, the disclosure of which is incorporated herein in its entirety). Alpha-synuclein phosphorylated at serine 129 (p-Ser-129 α-synuclein) levels are normalized to the total synuclein measured in each lysate and the ratio of phosphorylated synuclein to total synuclein as a function of compound concentration can be used to determine IC50 of the compounds.
# PLK1 = molecular target: T3, PLK1 (Homo sapiens, UniProt P53350); test: PLK TR-FRET peptide assay (PLK1); format: biochemical
# T3 construct: GST (N)
# T3 sequence (P53350 whole entry): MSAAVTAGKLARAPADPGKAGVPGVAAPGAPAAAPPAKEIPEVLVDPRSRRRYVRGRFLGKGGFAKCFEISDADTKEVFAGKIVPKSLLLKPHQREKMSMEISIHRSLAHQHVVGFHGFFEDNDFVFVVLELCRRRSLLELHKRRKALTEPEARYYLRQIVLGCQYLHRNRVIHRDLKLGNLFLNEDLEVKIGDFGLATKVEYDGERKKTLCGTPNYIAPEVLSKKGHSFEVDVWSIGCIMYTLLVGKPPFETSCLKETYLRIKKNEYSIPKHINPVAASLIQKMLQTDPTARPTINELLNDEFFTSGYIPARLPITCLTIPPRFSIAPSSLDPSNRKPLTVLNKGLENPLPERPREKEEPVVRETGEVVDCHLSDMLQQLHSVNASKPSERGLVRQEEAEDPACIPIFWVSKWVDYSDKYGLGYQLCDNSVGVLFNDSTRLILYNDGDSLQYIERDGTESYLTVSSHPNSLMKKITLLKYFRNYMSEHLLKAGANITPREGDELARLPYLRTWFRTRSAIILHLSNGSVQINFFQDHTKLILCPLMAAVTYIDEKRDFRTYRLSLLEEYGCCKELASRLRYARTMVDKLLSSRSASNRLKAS
# Description: as §1, §2
# [2] = PLK TR-FRET peptide assay, class symbols
# [3] = comparison with analogous compounds of WO 2011/079118
Compound,IC50 (PLK2; [2]) [µM],selectivity relative to PLK1 (PLK2),IC50 (PLK2; [3]) [µM],ratio Plk2 IC50 / Plk1 IC50 (selectivity relative to PLK1) (PLK2; [3]),activity with respect to PLK2 (PLK2),IC50 (PLK3) [µM],IC50 (PLK1; [2]) [µM],IC50 (PLK1; [3]) [µM],IC50 [1] [µM],cell activity [1]
"CC[C@@H]1c2nncn2-c2cnc(-n3ccnc3-c3ccc(F)c(F)c3)nc2N1C1CCC1 [Example 1, (R)-5-Cyclobutyl-7-(2-(3,4-difluorophenyl)-1H-imidazol-1-yl)-4-ethyl-4,5-dihydro-[1,2,4]triazolo[4,3-f]pteridine]",< 1,comparable selectivity,0.092,0.0063,comparable activity,10 to 50,10 to 50,14.6,4.4,comparable cell activity
"CC[C@@H]1c2nncn2-c2cnc(-n3ccnc3-c3ccc(F)cc3)nc2N1C1CCC1 [Example 7, (R)-5-Cyclobutyl-4-ethyl-7-(2-(4-fluorophenyl)-1H-imidazol-1-yl)-4,5-dihydro-[1,2,4]triazolo[4,3-f]pteridine]",< 1,comparable selectivity,0.04,0.0064,comparable activity,10 to 50,1 to 10,6.26,2.9,comparable cell activity
"CC[C@@H]1c2nncn2-c2cnc(-n3ccnc3-c3cccc(F)c3F)nc2N1C1CCC1 [Example 9, (R)-5-cyclobutyl-7-(2-(2,3-difluorophenyl)-1H-imidazol-1-yl)-4-ethyl-4,5-dihydro-[1,2,4]triazolo[4,3-f]pteridine]",< 1,,,,,1 to 10,< 1,,,
"CC[C@@H]1c2nncn2-c2cnc(-n3ccnc3-c3ccc(F)cc3F)nc2N1C1CCC1 [Example 11, (R)-5-Cyclobutyl-7-(2-(2,4-difluorophenyl)-1H-imidazol-1-yl)-4-ethyl-4,5-dihydro-[1,2,4]triazolo[4,3-f]pteridine]",< 1,,,,,10 to 50,1 to 10,,,
"CC[C@@H]1c2nncn2-c2cnc(-c3c[nH]nc3-c3nccs3)nc2N1C1CCC1 [Example 695, (R)-2-(4-(5-cyclobutyl-4-ethyl-4,5-dihydro-[1,2,4]triazolo[4,3-f]pteridin-7-yl)-1H-pyrazol-3-yl)thiazole]",< 1,,,,,1 to 10,1 to 10,,,
"CC[C@@H]1C(=O)N(C)c2cnc(-n3ccnc3-c3ccc(F)c(F)c3)nc2N1C1CCC1 [PCT Example 48, reference compound]",,,0.039,0.011,,,,3.56,4.3,

# More lines, main results first:
IC50 (PLK2; [2]) [µM],selectivity relative to PLK1 (PLK2),IC50 (PLK2; [3]) [µM],ratio Plk2 IC50 / Plk1 IC50 (selectivity relative to PLK1) (PLK2; [3]),activity with respect to PLK2 (PLK2),IC50 (PLK3) [µM],IC50 (PLK1; [2]) [µM],IC50 (PLK1; [3]) [µM],Compound,IC50 [1] [µM],cell activity [1]
< 1,comparable selectivity,0.0085,0.019,comparable activity,1 to 10,< 1,0.441,"CC[C@@H]1c2nncn2-c2cnc(-n3ccnc3-c3ccccc3)nc2N1C1CCC1 [Example 3, (R)-5-Cyclobutyl-4-ethyl-7-(2-phenyl-1H-imidazol-1-yl)-4,5-dihydro-[1,2,4]triazolo[4,3-f]pteridine]",0.42,comparable cell activity
< 1,comparable selectivity,0.006,0.019,comparable activity,1 to 10,< 1,0.317,"CC[C@@H]1c2nncn2-c2cnc(-n3ccnc3-c3ccccc3F)nc2N1C1CCC1 [Example 5, (R)-5-cyclobutyl-4-ethyl-7-(2-(2-fluorophenyl)-1H-imidazol-1-yl)-4,5-dihydro-[1,2,4]triazolo[4,3-f]pteridine]",0.44,comparable cell activity
,,0.007,0.036,,,,0.194,"CC[C@@H]1C(=O)N(C)c2cnc(-n3ccnc3-c3ccccc3)nc2N1C1CCC1 [PCT Example 47, reference compound]",0.67,
,,0.0045,0.058,,,,0.077,"CC[C@@H]1C(=O)N(C)c2cnc(-n3ccnc3-c3ccccc3F)nc2N1C1CCC1 [PCT Example 49, reference compound]",0.42,
,,0.02,,,,,2.06,"CC[C@@H]1c2nncn2-c2cnc(-n3ccnc3-c3ccc(F)cc3)nc2N1C1CCC1 [PCT Example 50, reference compound]",,
